Data published in ChEMBL document CHEMBL2016435 (Bioorg Med Chem Lett, 2012).

Tests used:
[1] = molecular target: 3',5'-cyclic-AMP phosphodiesterase 4B (Homo sapiens, UniProt Q07343); assay: Inhibition of human PDE4B2 catalytic domain and UCR2 (92 to 521) expressed in Escherichia coli BL21 using [3H]-cAMP/[3H]-cGMP after 15 mins by liquid scintillation counting
[2] = molecular target: cGMP-specific 3',5'-cyclic phosphodiesterase (Homo sapiens, UniProt O76074); assay: Inhibition of human PDE5A1 catalytic domain (535 to 860) expressed in Escherichia coli BL21 using [3H]-cAMP/[3H]-cGMP after 15 mins by liquid scintillation counting
[3] = molecular target: 3',5'-cyclic-AMP phosphodiesterase 4D (Homo sapiens, UniProt Q08499); assay: Inhibition of human PDE4D2 catalytic domain (86 to 413) expressed in Escherichia coli BL21 using [3H]-cAMP/[3H]-cGMP after 15 mins by liquid scintillation counting
Sequence of 3',5'-cyclic-AMP phosphodiesterase 4D (Q08499 whole entry, the tested form may be a part): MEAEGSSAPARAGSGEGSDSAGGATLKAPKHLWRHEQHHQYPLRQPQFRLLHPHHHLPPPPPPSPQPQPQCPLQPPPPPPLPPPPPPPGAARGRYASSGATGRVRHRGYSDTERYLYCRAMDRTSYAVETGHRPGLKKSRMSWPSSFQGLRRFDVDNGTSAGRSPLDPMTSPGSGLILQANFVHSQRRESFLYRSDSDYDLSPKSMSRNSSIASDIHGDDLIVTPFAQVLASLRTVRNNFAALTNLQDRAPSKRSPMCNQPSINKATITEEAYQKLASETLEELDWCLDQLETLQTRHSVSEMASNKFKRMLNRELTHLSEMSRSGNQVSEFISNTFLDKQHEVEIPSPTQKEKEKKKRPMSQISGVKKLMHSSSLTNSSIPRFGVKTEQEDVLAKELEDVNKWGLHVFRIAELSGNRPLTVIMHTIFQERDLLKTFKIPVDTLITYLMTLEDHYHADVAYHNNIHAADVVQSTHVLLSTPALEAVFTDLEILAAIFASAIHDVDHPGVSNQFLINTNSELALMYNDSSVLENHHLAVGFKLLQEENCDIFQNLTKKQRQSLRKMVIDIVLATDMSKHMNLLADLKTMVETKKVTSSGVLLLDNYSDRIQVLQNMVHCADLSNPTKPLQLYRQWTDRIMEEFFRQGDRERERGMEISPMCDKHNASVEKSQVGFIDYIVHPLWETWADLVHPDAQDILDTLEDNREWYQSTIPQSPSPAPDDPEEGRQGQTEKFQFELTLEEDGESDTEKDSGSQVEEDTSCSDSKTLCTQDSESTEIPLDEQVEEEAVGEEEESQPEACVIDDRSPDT

[4] = molecular target: High affinity cGMP-specific 3',5'-cyclic phosphodiesterase 9A (Homo sapiens, UniProt O76083); assay: Inhibition of human PDE9A2 catalytic domain (181 to 506) expressed in Escherichia coli BL21 using [3H]-cAMP/[3H]-cGMP after 15 mins by liquid scintillation counting
Sequence of High affinity cGMP-specific 3',5'-cyclic phosphodiesterase 9A (O76083 whole entry, the tested form may be a part): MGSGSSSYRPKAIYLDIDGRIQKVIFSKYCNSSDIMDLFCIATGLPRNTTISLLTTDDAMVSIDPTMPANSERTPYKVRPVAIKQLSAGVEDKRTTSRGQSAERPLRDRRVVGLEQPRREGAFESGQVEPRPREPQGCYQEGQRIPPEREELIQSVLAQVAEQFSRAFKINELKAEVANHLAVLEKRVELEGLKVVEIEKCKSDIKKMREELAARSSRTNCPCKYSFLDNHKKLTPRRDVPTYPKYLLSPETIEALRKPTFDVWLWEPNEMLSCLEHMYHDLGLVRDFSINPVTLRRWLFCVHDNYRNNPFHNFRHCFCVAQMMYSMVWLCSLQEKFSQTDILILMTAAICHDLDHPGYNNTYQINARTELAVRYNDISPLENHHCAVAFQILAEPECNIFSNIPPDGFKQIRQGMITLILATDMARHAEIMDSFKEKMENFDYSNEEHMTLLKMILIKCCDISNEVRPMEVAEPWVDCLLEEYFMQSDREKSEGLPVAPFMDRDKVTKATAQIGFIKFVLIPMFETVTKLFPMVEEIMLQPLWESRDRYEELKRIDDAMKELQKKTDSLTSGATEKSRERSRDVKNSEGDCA

Sequence of 3',5'-cyclic-AMP phosphodiesterase 4B (Q07343 whole entry, the tested form may be a part): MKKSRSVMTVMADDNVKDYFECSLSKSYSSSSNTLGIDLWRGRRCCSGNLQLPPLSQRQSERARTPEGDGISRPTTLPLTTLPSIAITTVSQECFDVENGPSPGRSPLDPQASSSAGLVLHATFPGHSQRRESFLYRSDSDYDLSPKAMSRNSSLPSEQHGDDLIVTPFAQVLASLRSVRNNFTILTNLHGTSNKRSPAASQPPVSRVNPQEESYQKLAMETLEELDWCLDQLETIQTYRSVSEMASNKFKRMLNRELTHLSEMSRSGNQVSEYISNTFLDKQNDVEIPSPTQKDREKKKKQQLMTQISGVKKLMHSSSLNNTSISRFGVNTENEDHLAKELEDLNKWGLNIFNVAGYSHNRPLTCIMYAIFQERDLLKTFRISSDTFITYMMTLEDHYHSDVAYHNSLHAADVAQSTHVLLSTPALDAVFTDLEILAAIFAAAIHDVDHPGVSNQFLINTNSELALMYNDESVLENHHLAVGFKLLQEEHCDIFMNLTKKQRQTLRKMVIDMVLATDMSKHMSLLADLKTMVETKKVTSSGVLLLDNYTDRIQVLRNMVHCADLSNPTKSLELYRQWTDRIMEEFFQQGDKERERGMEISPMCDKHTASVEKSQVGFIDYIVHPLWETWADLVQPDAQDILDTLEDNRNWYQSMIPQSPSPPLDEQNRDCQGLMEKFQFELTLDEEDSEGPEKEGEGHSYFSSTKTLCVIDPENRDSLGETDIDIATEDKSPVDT

SMILES | IC50 [1] [µM] | IC50 [2] [µM] | IC50 [3] [µM] | IC50 [4] [µM]
CC(C)=CCc1c(O)cc(-c2cc3ccc(O)cc3o2)cc1O [MORACIN C] | 18.1 | > 50 | 26 | > 100
Oc1cc(O)cc(-c2cc3ccc(O)cc3o2)c1 [MORACIN M] | 4.5 | > 40 | – | > 100
